# Calls of active or inactive are those of the source. The calls are words filed in the database; no cut-off is given here.
# What was measured:
# [1] = system: ECV-304; assay: Cytotoxicity against human ECV304 cells after 48 hrs by MTT assay; format: functional, cell-based; conditions: ECV-304, 48 h
# [2] = Cytotoxicity against human GLC82 cells after 48 hrs by MTT assay; format: functional, cell-based; conditions: GLC82, 48 h
# [3] = system: Nucleic Acid; assay: Thermal stability of c-MYC FPu18T G-quadruplex DNA assessed as stabilization temperature at 2 uM by FRET assay in presence of 10 uM duplex DNA competitor; format: nucleic-acid assay
# [4] = system: NCI-H460; assay: Cytotoxicity against human NCI-H460 cells after 48 hrs by MTT assay; format: functional, cell-based; conditions: NCI-H460, 48 h
# [5] = system: Nucleic Acid; assay: Thermal stability of F10T duplex DNA assessed as stabilization temperature at 2 uM by FRET assay; format: nucleic-acid assay
# [6] = system: Nucleic Acid; assay: Thermal stability of c-MYC FPu18T G-quadruplex DNA assessed as stabilization temperature at 2 uM by FRET assay; format: nucleic-acid assay
# [7] = system: Nucleic Acid; assay: Inhibition of c-myc G-quadruplex formation in oligonucleotide Pu27 after 3 mins by PCR stop assay; format: nucleic-acid assay
# [8] = system: HL-60; assay: Cytotoxicity against human HL60 cells after 48 hrs by MTT assay; format: functional, cell-based; conditions: HL-60, 48 h
# [9] = system: Nucleic Acid; assay: Binding affinity to oligonucleotide Pu18 DNA assessed as induction of Pu18G-quadruplex DNA at 262 nm bandwidth by circula dichroism spectroscopy; format: nucleic-acid assay
# [10] = system: HL-60; assay: Inhibition of c-myc gene transcription in human HL60 cells assessed as c-myc mRNA level normalized to GAPDH mRNA level by RT-PCR; format: functional, cell-based
# [11] = system: ECV-304; assay: Inhibition of c-myc gene transcription in human ECV304 cells assessed as c-myc mRNA level normalized to GAPDH mRNA level by RT-PCR; format: functional, cell-based
# [12] = system: Nucleic Acid; assay: Binding affinity to oligonucleotide Pu18 DNA assessed as induction of Pu18G-quadruplex DNA negative peak at 240 nm bandwidth by circula dichroism spectroscopy; format: nucleic-acid assay
# [13] = system: ECV-304; assay: Induction of growth phase arrest in human ECV304 cells at 0.5 uM after 16 days; format: functional, cell-based
# [14] = system: Nucleic Acid; assay: Binding affinity to oligonucleotide Pu18 DNA assessed as induction of Pu18G-quadruplex DNA positive shift to at 262 nm bandwidth by circula dichroism spectroscopy; format: nucleic-acid assay
# [15] = system: HL-60; assay: Induction of growth phase arrest in human HL60 cells expressing c-myc gene at 0.5 uM after 16 days; format: functional, cell-based
ΔTm [3],ΔTm [5],ΔTm [6],IC50 [7],Activity [9],Activity [12],Activity [14],Compound,IC50 [1],IC50 [2],IC50 [4],IC50 [8],inhibition [10],inhibition [11],Activity [13],Activity [15]
24 °C,0 °C,25 °C,3 µM,–,–,–,COc1ccc2cc3[n+](c4c2c1N(CCCN(C)C)C=C4)CCc1cc2c(cc1-3)OCO2,> 100 µM,5 µM,9 µM,8 µM,–,–,–,–
–,1 °C,20 °C,3.3 µM,–,–,–,COc1ccc2cc3[n+](cc2c1NCCCN(C)C)CCc1cc2c(cc1-3)OCO2,> 100 µM,29 µM,64 µM,27.5 µM,–,–,–,–
–,0 °C,19 °C,3.9 µM,–,–,–,COc1ccc2cc3[n+](cc2c1NCCN(C)C)CCc1cc2c(cc1-3)OCO2,> 100 µM,36 µM,56 µM,38 µM,–,–,–,–
–,0 °C,17 °C,4.8 µM,–,–,–,COc1ccc2cc3[n+](cc2c1NCCCN1CCOCC1)CCc1cc2c(cc1-3)OCO2,> 100 µM,85 µM,> 100 µM,20.6 µM,–,–,–,–
19.5 °C,0 °C,20 °C,3.4 µM,–,–,–,COc1ccc2cc3[n+](c4c2c1N(CCN(C)C)C=C4)CCc1cc2c(cc1-3)OCO2,> 100 µM,31 µM,60 µM,12 µM,–,–,–,–
27.5 °C,0.5 °C,29 °C,1.9 µM,Active,Active,Active,COc1ccc2cc3[n+](c4c2c1N(CCCCCCN)C=C4)CCc1cc2c(cc1-3)OCO2,> 100 µM,10 µM,13 µM,2 µM,Active,inactive,inactive,Active
23 °C,0 °C,23 °C,4.3 µM,–,–,–,COc1ccc2cc3[n+](c4c2c1N(CCCN1CCOCC1)C=C4)CCc1cc2c(cc1-3)OCO2,> 100 µM,30 µM,36 µM,12.6 µM,–,–,–,–
–,2 °C,29 °C,2 µM,–,–,–,COc1ccc2cc3[n+](cc2c1NCCCCCCN)CCc1cc2c(cc1-3)OCO2,> 100 µM,4 µM,9 µM,5.5 µM,Active,Active,Active,Active
–,2 °C,1 °C,–,–,–,–,COc1ccc2cc3[n+](cc2c1OC)CCc1cc2c(cc1-3)OCO2,–,–,–,–,–,–,–,–

# Source: ChEMBL document CHEMBL1770141, “Quinolino-benzo-[5, 6]-dihydroisoquindolium compounds derived from berberine: a new class of highly selective ligands for G-quadruplex DNA in c-myc oncogene” (Eur J Med Chem, 2011)
